Several values for one entry are separate records, joined by “and”; a condition that tells them apart may be missing. Identical values can stand only once. Like-named read-outs stand apart in the source and are kept apart here.
How the values were obtained:
primary VS cells [1] = test: BrdU proliferation assay in primary VS cultures; format: cell-based, human; details: for proliferation, of the NT cells / proliferation, of the non-treated cells: 48 hours
Experimental: Proliferation rate of 12 VS cultures was assessed and correlated with the tumor volume in the latest gadolinium enhanced T1-weighted MRI scan prior to surgical resection, and with tumor growth in vivo, measured as changes in the tumor's volume over time calculated from serial MRI scans. Tumor growth was standardized by dividing the growth rate by the initial tumor volume. Separate analyses were performed for solid tumors, which generally account for approximately 96% of VSs (Charabi et al., 1994), versus all studied tumors, which included 4 out of 13 total tumors with a visible cystic component, because cystic components could misrepresent true tumor volume (Charabi et al., 1994). To determine the level of cell proliferation in the cultures, Bromodeoxyuridine (BrdU) was added to the cells at a concentration of 10 μg/ml 20 hours before the cells were fixed. The cells were kept in the dark after the addition of BrdU Immunofluorescence protocol was followed as described under ‘Immunofluorescence,’ and cell and nuclear membranes were permeablized by incubation in 1% Triton-X for 10 minutes and by incubation in 2N Hydrochloric acid for 20 minutes, respectively, after fixation. Primary antibody against BrdU (AbD Serotec, NC, 1:200) and anti-rat IgG (Life Technologies, NY, 1:1000) were used. BrdU- and Hoechst-stained nuclei were counted in 3-5 fields and the ratio of BrdU positive to Hoechst positive nuclei was used to determine the proliferation rate in vitro. […]
(§1) Cultured human primary VS cells, primary SCs and HEI-193 cells were treated with NF-κB inhibitors BAY11-7082 (BAY11) or curcumin for 48 hours (Santa Cruz Biotechnology). BAY11 or curcumin, diluted in 100% DMSO, were mixed to the accurate concentrations in warmed media and applied to the cultures (with DMSO concentration in media being 1% maximum), alongside a no-treatment control receiving media alone with appropriate corresponding DMSO levels. Experiments were performed in media fortified with antibiotics and serum (same formulation as described in Example 1 for culturing cells).
(§2) After 48 hours of treatment, primary VS and Schwann cultures were fixed for BrdU staining, to visualize proliferation, or TUNEL staining, to visualize cell death. The same methodology as described in Example 1 was utilized. Cleaved caspase 3 staining, another apoptosis marker to reinforce findings using TUNEL, was conducted using an antibody against cleaved caspase 3 following the ‘immunofluorescence’ protocol outlined in Example 1.
(§3) The cultures were incubated with the drugs for 48 hours. To label proliferating cells, BrdU was added 20 hours before fixation. pH was measured in the media after drug addition to ensure no significant deviations.
(§4) After 48 hours of treatment with salicylates, primary VS and SC cultures were fixed for BrdU staining, to visualize proliferation, or TUNEL staining, to visualize cell death. The same methodology as described in Example 1 was utilized.
To understand cross-talk between HGF and VEGF-A pathway, cultured VS cells were incubated with Life Technologies silencer select siRNAs targeting VEGFA (s461) or MET (s8700). To understand whether HGF signaling contributed to VS proliferation, cultured VS cells were treated with MET inhibitor SU11274 (Sigma-Aldrich, MO, #S9820). Seventy-two hours after siRNA treatment or 12 hours after treatment with SU11274 (2 μM), cells were incubated with 10 μg/mL BrdU (Life Technologies, NY, # B23151) for 20 hours before fixation.

COX-2 = details: 48 hours, VS culture media
Experimental: Prostaglandin (PTG) E2 was assayed in the media of VS cultures using the Prostaglandin E2 Parameter Assay Kit (R&D Systems, KGE004B). The media was collected after 48 hours of treatment from non-treated and treated cultured cells. Manufacturer's instructions were closely followed.
as §3

primary SCs [2] = test: BrdU proliferation assay in primary Schwann cell cultures; format: cell-based, human; details: 48 hours
Experimental: (§5) Proliferation rate of 12 VS cultures was assessed and correlated with the tumor volume in the latest gadolinium enhanced T1-weighted MRI scan prior to surgical resection, and with tumor growth in vivo, measured as changes in the tumor's volume over time calculated from serial MRI scans. Tumor growth was standardized by dividing the growth rate by the initial tumor volume. Separate analyses were performed for solid tumors, which generally account for approximately 96% of VSs (Charabi et al., 1994), versus all studied tumors, which included 4 out of 13 total tumors with a visible cystic component, because cystic components could misrepresent true tumor volume (Charabi et al., 1994). To determine the level of cell proliferation in the cultures, Bromodeoxyuridine (BrdU) was added to the cells at a concentration of 10 μg/ml 20 hours before the cells were fixed. The cells were kept in the dark after the addition of BrdU Immunofluorescence protocol was followed as described under ‘Immunofluorescence,’ and cell and nuclear membranes were permeablized by incubation in 1% Triton-X for 10 minutes and by incubation in 2N Hydrochloric acid for 20 minutes, respectively, after fixation. Primary antibody against BrdU (AbD Serotec, NC, 1:200) and anti-rat IgG (Life Technologies, NY, 1:1000) were used. BrdU- and Hoechst-stained nuclei were counted in 3-5 fields and the ratio of BrdU positive to Hoechst positive nuclei was used to determine the proliferation rate in vitro.
as §1, §2, §3, §4

primary VS cells [3] = test: TUNEL cell death assay in primary VS cultures; format: cell-based, human; details: 48 hours
Experimental: Rate of apoptosis in 6 VS cultures was assessed and correlated with tumor growth in vivo and tumor volume. […] Apoptosis was measured using terminal deoxynucleotidyl transferase dUTP nick end labeling (TUNEL, Roche Applied Sciences, NY) following manufacturer's instructions. Briefly, immunofluorescence protocol was followed as described under ‘Immunofluorescence,’ until fixations, then the cells were washed with PBS thrice and incubated in 1% Triton-X for 10 minutes on shaker. The cells were washed with PBS once and incubated in TUNEL mix for 1 hour at 37° C., then for 30 minutes at RT on shaker. The cells were then incubated in rhodamine phalloidin (Life Technologies, NY, 1:40) and Hoechst stain for 20 minutes, washed with PBS thrice and mounted onto slides for imaging. TUNEL and Hoechst stained nuclei were counted in >3 fields and the ratio of TUNEL positive to Hoechst positive nuclei was used to determine apoptosis rate in vitro. A positive control of 10 minutes-DNAse (Roche Applied Sciences, NY) treatment prior to TUNEL labeling was utilized.
(§6) For siRNA treatment, cultured primary VS cells or HEI-193 cells were placed in antibiotic and serum free media overnight. The next day, the cells were incubated with Life Technologies siRNAs targeting NF-κB genes RELA and NF-κB1, with control cells being treated with vehicle only (Lipofectamine RNAiMax), for 5 days. Some cultures were also incubated with a fluorescent random Oligo (Life Technologies) along with vehicle to assess transfection efficiency. siRNA experiments were performed in antibiotic and serum free media.
BAY11 or curcumin, diluted in 100% DMSO, were mixed to the accurate concentrations in warmed media and applied to the cultures (with DMSO concentration in media being 1% maximum), alongside a no-treatment control receiving media alone with appropriate corresponding DMSO levels.
After 48 hours of treatment, primary VS and Schwann cultures were fixed for BrdU staining, to visualize proliferation, or TUNEL staining, to visualize cell death.
After 48 hours of treatment with salicylates, primary VS and SC cultures were fixed for BrdU staining, to visualize proliferation, or TUNEL staining, to visualize cell death.

NF2 VSs = details: NF2 VS patients; cited from earlier work
HEI-193 NF2 VS cell line [4] = test: BrdU proliferation assay in HEI-193 cells; format: cell-based, human; details: for normalized proliferation rate: 48 hours
Experimental: as §5
(§7) The same methodology as described in Example 1 was utilized for primary VS and SC cultures. Cultures were treated with NF-κB inhibitors approximately after 2 weeks of culturing. HEI-193 cell line was a gift from Dr. Giovannini at the House Ear Institute (Hung et al., 2002a).
as §6, §1, §2

HEI-193 NF2 VS cell line [5] = test: TUNEL cell death assay in HEI-193 cells; format: cell-based, human; details: 48 hours
Experimental: (§8) Rate of apoptosis in 6 VS cultures was assessed and correlated with tumor growth in vivo and tumor volume. Two out of the six VS had cystic components. Apoptosis was measured using terminal deoxynucleotidyl transferase dUTP nick end labeling (TUNEL, Roche Applied Sciences, NY) following manufacturer's instructions. Briefly, immunofluorescence protocol was followed as described under ‘Immunofluorescence,’ until fixations, then the cells were washed with PBS thrice and incubated in 1% Triton-X for 10 minutes on shaker. The cells were washed with PBS once and incubated in TUNEL mix for 1 hour at 37° C., then for 30 minutes at RT on shaker. The cells were then incubated in rhodamine phalloidin (Life Technologies, NY, 1:40) and Hoechst stain for 20 minutes, washed with PBS thrice and mounted onto slides for imaging. TUNEL and Hoechst stained nuclei were counted in >3 fields and the ratio of TUNEL positive to Hoechst positive nuclei was used to determine apoptosis rate in vitro. A positive control of 10 minutes-DNAse (Roche Applied Sciences, NY) treatment prior to TUNEL labeling was utilized.
as §7, §6, §1, §2

primary SCs [6] = test: TUNEL cell death assay in primary Schwann cell cultures; format: cell-based, human; details: 48 hours
Experimental: as §8, §1, §2

Compound: O=C([O-])c1ccccc1O.[Na+] [NaSal, sodium salicylate]
- proliferation, of the NT cells (primary VS cells [1]; 1 mM): 18% and 18.9±5.0%
- proliferation, of the NT cells (primary VS cells [1]; 5 mM): 25.4±11.1%
- proliferation, of the NT cells (primary VS cells [1]; 10 mM): 20.6±11.2%
- secreted PTG levels, of NT cells (COX-2; 1 mM): 3.8%
- secreted PTG levels, of NT cells (COX-2; 5 mM): 32.2%
- proliferation, of the NT cells (primary SCs [2]; 5 mM): 104.4±13.2%
- proliferation, of the NT cells (primary SCs [2]; 10 mM): 64.9±18.9%
- cell death rate (primary VS cells [3]; 5 mM): 3.3±2.3%

Compound: CS(=O)(=O)CCNCc1ccc(-c2ccc3ncnc(Nc4ccc(OCc5cccc(F)c5)c(Cl)c4)c3c2)o1 [Lapatinib, lapatinib]
- patients with decrease in tumor size / volume (NF2 VSs): approximately 24%
- patients with hearing improvement (NF2 VSs): ~31%

Compound: Cc1ccc(S(=O)(=O)/C=C/C#N)cc1 [BAY11, BAY11-7082]
- proliferation, of the non-treated cells (primary VS cells [1]; 1 μM): 54.7±22.8%
- proliferation, of the non-treated cells (primary VS cells [1]; 5 μM): 14%
- proliferation, of the non-treated cells (primary VS cells [1]; 5 μM, listed as BAY 11): 14.3±9.7%
- effective therapeutic window to target VS cells (primary VS cells [1]; from primary VS and SC culture results combined): around 5 μM
- normalized proliferation rate (HEI-193 NF2 VS cell line [4]; 10 μM): 65.6±24.6%
- normalized proliferation rate (HEI-193 NF2 VS cell line [4]; 100 μM): 9.1±4.9%
- normalized proliferation rate (HEI-193 NF2 VS cell line [4]): 4.3±3.3%
- higher concentration needed to reduce proliferation and survival than in primary VS cells (HEI-193 NF2 VS cell line [4]; NF2 VS cell line versus primary VS cells): ~10 fold
- normalized proliferation rate (primary SCs [2]; 1 μM): 165.2±125.1%
- normalized proliferation rate (primary SCs [2]; 5 μM): 133.2±101.1%
- normalized proliferation rate, of the NT cells (primary SCs [2]; 1 mM): 130.2±65.6%
- cell death rate (HEI-193 NF2 VS cell line [5]; 1 μM): 1.3±0.5%
- cell death rate (HEI-193 NF2 VS cell line [5]; 5 μM): 1.9±1.2%
- cell death rate (HEI-193 NF2 VS cell line [5]; 10 μM): 1.1±1.1%
- cell death rate (HEI-193 NF2 VS cell line [5]; 100 μM): 58.8±21.5%
- cell death rate (HEI-193 NF2 VS cell line [5]): 55.3±16.9%
- apoptosis / cell death rate (primary SCs [6]; 1 μM): 1.0±0.7%
- apoptosis / cell death rate (primary SCs [6]; 5 μM): 0.7±0.7%
- cell death rate (primary VS cells [3]; 1 μM): 36±13%
- cell death rate (primary VS cells [3]; 5 μM): 47±12%

Compound: bevacizumab
- patients with decrease in tumor size / volume (NF2 VSs): 55%
- patients with hearing improvement (NF2 VSs): 57%
